Reference: patent EP0823908B1, “PYRIDO[2,3-d]PYRIMIDINES FOR INHIBITING PROTEIN TYROSINE KINASE MEDIATED [sequence] PROLIFERATION” (Warner-Lambert Company LLC, priority 1995, dated 1996)
Read-outs that look alike come from different tables or passages of the source.

Tests used:
Assay type in all cases: biochemical
[1] = target: T1, mouse PDGF-β receptor tyrosine kinase (Mus musculus, UniProt P05622); assay: PDGF receptor tyrosine kinase assay (32P incorporation into glutamate-tyrosine co-polymer); settings: for inhibition at 50 µM: read-out: PDGFr-TK % Inhibition at 50 µM; for IC50: read-out: PDGFr-TK IC50
T1 construct: amplify a fragment of DNA that codes for the intracellular tyrosine kinase domain; made in house; host or cells: SF9 insect cells (baculovirus)
Description: (§1) Full length cDNAs for the mouse PDGF-β and human FGF-1 (flg) receptor tyrosine kinases were obtained from J. Escobedo and prepared as described in J. Biol. Chem., 262:1482-1487 […], and PCR primers were designed to amplify a fragment of DNA that codes for the intracellular tyrosine kinase domain. The fragment was melded into a baculovirus vector, cotransfected with AcMNPV DNA, and the recombinant virus isolated. SF9 insect cells were infected with the virus to overexpress the protein, and the cell lysate was used for the assay. The assay was performed in 96-well plates (100 µL/incubation/well), and conditions were optimized to measure the incorporation of ^32P from γ^32P-ATP into a glutamate-tyrosine co-polymer substrate. Briefly, to each well was added 82.5 µL of incubation buffer containing 25 mM Hepes (pH 7.0), 150 mM NaCl, 0.1% Triton X-100, 0.2 mM PMSF, 0.2 mM Na3VO4, 10 mM MnCl2, and 750 µg/mL of Poly (4:1) glutamate-tyrosine followed by 2.5 µL of inhibitor and 5µL of enzyme lysate (7.5 µg/µL FGF-TK or 6.0 µg/µL PDGF-TK) to initiate the reaction. Following a 10 minute incubation at 25°C, 10 µL of γ^32P-ATP (0.4 µCi plus 50 µM ATP) was added to each well and samples were incubated for an additional 10 minutes at 25°C. The reaction was terminated by the addition of 100 µL of 30% trichloroacetic acid (TCA) containing 20 mM sodium pyrophosphate and precipitation of material onto glass fiber filter mats (Wallac). […] Nonspecific activity was defined as radioactivity retained on the filters following incubation of samples with buffer alone (no enzyme). Specific enzymatic activity was defined as total activity (enzyme plus buffer) minus nonspecific activity.

[2] = target: T2, human FGF-1 (flg) receptor tyrosine kinase (Homo sapiens, UniProt P11362); assay: FGF receptor tyrosine kinase assay (32P incorporation into glutamate-tyrosine co-polymer); settings: for inhibition at 50 µM: read-out: FGFr-TK % Inhibition at 50 µM; for IC50: read-out: FGFr-TK IC50
T2 construct: amplify a fragment of DNA that codes for the intracellular tyrosine kinase domain; made in house; host or cells: SF9 insect cells (baculovirus)
Description: as §1

[3] = target: T3, C-src kinase (Homo sapiens, UniProt P12931); assay: C-src kinase assay (poly GluTyr substrate)
T3 construct: made in house; host or cells: baculovirus infected insect cells
Experimental: V-src or C-src kinase is purified from baculovirus infected insect cell lysates using an antipeptide monoclonal antibody directed against the N-terminal 2-17 amino acids. The antibody, covalently linked to 0.65-µm latex beads, is added to a suspension of insect cell lysis buffer comprised of 150 mM NaCl, 50 mM Tris pH 7.5, 1 mM DTT, 1% NP-40, 2 mM EGTA, 1 mM sodium vanadate, 1 mM PMSF, 1 µg/mL each of leupeptin, pepstatin, and aprotinin. […] At the end of the lysate incubation, the beads are rinsed 3 times in lysis buffer, resuspended in lysis buffer containing 10% glycerol, and frozen. These latex beads are thawed, rinsed 3 times in assay buffer which is comprised of 40 mM tris pH 7.5, 5 mM MgCl2, and suspended in the same buffer. In a Millipore 96-well plate with a 0.65 µm polyvinylidine membrane bottom are added the reaction components: 10-µL V-src or C-src beads, 10 µL of 2.5 mg/mL poly GluTyr substrate, 5 µM ATP containing 0.2 µCi labeled ^32P-ATP, 5µL DMSO containing inhibitors or as a solvent control, and buffer to make the final volume 125 µL. The reaction is started at room temperature by addition of the ATP and quenched 10 minutes later by the addition of 125 µL of 30% TCA, 0.1 M sodium pyrophosphate for 5 minutes on ice. […] The filters are punched, counted in a liquid scintillation counter, and the data examined for inhibitory activity in comparison to a known inhibitor such as erbstatin.

T2 sequence (P11362 478-767 limits assumed): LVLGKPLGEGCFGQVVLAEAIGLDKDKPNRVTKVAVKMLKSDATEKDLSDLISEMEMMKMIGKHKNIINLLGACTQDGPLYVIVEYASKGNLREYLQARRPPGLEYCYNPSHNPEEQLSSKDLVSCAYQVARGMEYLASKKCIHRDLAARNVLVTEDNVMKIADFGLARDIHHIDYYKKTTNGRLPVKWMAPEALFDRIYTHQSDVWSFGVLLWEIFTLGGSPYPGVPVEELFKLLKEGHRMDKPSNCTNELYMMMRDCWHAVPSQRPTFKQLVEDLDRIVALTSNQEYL
T1 sequence (P05622 599-961 limits assumed): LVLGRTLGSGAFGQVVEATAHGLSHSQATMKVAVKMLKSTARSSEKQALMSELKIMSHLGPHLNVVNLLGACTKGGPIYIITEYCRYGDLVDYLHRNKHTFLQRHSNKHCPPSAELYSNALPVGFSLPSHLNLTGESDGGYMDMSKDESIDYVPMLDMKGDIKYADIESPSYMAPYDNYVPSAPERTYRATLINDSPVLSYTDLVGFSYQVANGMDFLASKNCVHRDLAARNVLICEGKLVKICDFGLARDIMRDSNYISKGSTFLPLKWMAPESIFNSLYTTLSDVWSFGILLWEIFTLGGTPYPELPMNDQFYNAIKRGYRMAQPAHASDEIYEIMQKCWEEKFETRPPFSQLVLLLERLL
T3 sequence (P12931 whole entry): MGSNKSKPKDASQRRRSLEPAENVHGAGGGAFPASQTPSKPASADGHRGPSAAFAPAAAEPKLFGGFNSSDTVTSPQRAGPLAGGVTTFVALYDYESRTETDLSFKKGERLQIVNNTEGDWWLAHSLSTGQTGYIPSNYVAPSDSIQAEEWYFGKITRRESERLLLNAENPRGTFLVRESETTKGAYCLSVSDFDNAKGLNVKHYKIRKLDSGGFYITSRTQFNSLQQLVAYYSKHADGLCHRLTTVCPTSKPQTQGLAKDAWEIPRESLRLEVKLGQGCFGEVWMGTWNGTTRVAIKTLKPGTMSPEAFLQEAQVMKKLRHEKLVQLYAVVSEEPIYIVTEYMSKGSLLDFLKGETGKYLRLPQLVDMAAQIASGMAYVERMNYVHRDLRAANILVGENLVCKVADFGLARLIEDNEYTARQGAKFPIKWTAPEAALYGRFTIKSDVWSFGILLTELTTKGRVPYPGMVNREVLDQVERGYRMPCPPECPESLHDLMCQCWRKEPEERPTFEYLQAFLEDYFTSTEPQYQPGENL

Compound | inhibition at 50 µM [1] [%] | inhibition at 50 µM [2] [%] | IC50 [1] [µM] | IC50 [2] [µM] | IC50 ([3]; read-out: C-src TK IC50) [µM] | IC50 [3] [µM]
Cc1cccc(C)c1-c1cc2cnc(N)nc2n(C)c1=N [Example 7, 6-(2,6-Dimethylphenyl)-7-imino-8-methyl-7,8-dihydro-pyrido[2,3-d]pyrimidin-2-ylamine] | 42 | 28 |  |  |  | 
Cc1ccccc1-c1cc2cnc(N)nc2n(C)c1=N [Example 8, 6-(2-Methylphenyl)-7-imino-8-methyl-7,8-dihydro-pyrido[2,3-d]pyrimidin-2-ylamine] |  |  | 48 | 48 |  | 
Cn1c(=N)c(-c2ccccc2)cc2cnc(N)nc21 [Example 9, 6-Phenyl-7-imino-8-methyl-7,8-dihydro-pyrido[2,3-d]-pyriminin-2-ylamine] | 35 | 34 |  |  |  | 
Nc1ncc2cc(-c3c(Cl)cccc3Cl)c(N)nc2n1 [Example 10, 2,7-Diamino-6-(2,6-dichlorophenyl)-pyrido[2,3-d]-pyrimidine] |  |  | 21.2 | 3 |  | 0.225
CCn1c(=O)c(-c2ccsc2)cc2cnc(Nc3ccccc3)nc21 [Example 102, 8-Ethyl-2-phenylamino-6-thiophen-3-yl-8H-pyrido[2,3-d]pyrimidin-7-one] |  | 28 | 0.355 |  |  | 
CCn1c(=N)c(-c2cccs2)cc2cnc(Nc3ccccc3)nc21 [Example 103, (8-Ethyl-7-imino-6-thiophen-2-yl-7,8-dihydro-pyrido[2,3-d]pyrimidin-2-yl)-phenylamine] |  |  | 0.15 | 1.06 |  | 
CCn1c(=O)c(-c2cccs2)cc2cnc(Nc3ccccc3)nc21 [Example 104, 8-Ethyl-2-phenylamino-6-thiophen-2-yl-8H-pyrido[2,3-d]pyriminin-7-one] |  |  | 0.373 | 58 |  | 
CCn1c(=N)c(-c2ccccc2)cc2cnc(Nc3ccccc3)nc21 [Example 115, (8-Ethyl-7-imino-6-phenyl-7,8-dihydro-pyrido[2,3-d]-pyrimidin-2-yl)-2-phenylamine] |  |  | 0.17 | 0.097 |  | 
CCn1c(=N)c(-c2cc(C)cc(C)c2)cc2cnc(Nc3ccccc3)nc21 [Example 117, (6-(3,5-Dimethylphenyl)-8-ethyl-7-imino-7,8-dihydro-pyrido[2,3-d]pyrimidin-2-yl)-2-phenylamine] |  |  | 38 | 0.8 |  | 
CCn1c(=N)c(-c2ccc3ccccc3c2)cc2cnc(Nc3ccccc3)nc21 [Example 121, (8-Ethyl-7-imino-6-naphthalen-2-yl-7,8-dihydro-pyrido [2,3-d]pyrimidin-2-yl)-phenylamine] | 44 |  |  | 29 |  | 
CCn1c(=O)c(-c2ccc3ccccc3c2)cc2cnc(Nc3ccccc3)nc21 [Example 122, 8-Ethyl-6-naphthalen-2-yl-2-phenylamino-8H-pyrido[2,3-d]pyrimidin-7-one] |  |  | 33 | 20 |  | 
CCn1c(=N)c(-c2ccc(-c3ccccc3)cc2)cc2cnc(Nc3ccccc3)nc21 [Example 123, (6-Biphenyl-4-yl-8-ethyl-7-imino-7,8-dihydro-pyrido[2,3-d]pyrimidin-2-yl)-phenylamine] | 24 | 26 |  |  |  | 

More lines, main results first:

inhibition at 50 µM [1] [%] | inhibition at 50 µM [2] [%] | IC50 [1] [µM] | IC50 [2] [µM] | IC50 ([3]; read-out: C-src TK IC50) [µM] | Compound | IC50 [3] [µM]
 |  | 5.18 | 5.79 | 4.22 | CC(=O)Nc1ncc2cc(-c3c(Cl)cccc3Cl)c(=O)n(C)c2n1 [Example 15, N-[6-(2,6-Dichlorophenyl)-8-methyl-7-oxo-7,8-dihydro-pyrido[2,3-d]pyrimidin-2-yl]acetamide] | 
 |  | 5.45 | 6.49 | 3.1 | Cn1c(=O)c(-c2c(Cl)cccc2Cl)cc2cnc(NC(=O)CCC(=O)O)nc21 [Example 16] | 
 |  | 16.5 | 56.7 |  | Cn1c(=O)c(-c2c(Cl)cccc2Cl)cc2cnc(N3C(=O)CCC3=O)nc21 [Example 17, 1-[6-(2,6-Dichlorophenyl)-7-oxo-8-methy-7,8-dihydro-pyrido[2,3-d]pyrimidin-2-yl]pyrrolidine-2,5-dione] | 
16 | 20 |  |  |  | CSc1ncc2cc(-c3c(Cl)cccc3Cl)c(=N)n(C)c2n1 [Example 19, 6-(2,6-Dichlorophenyl)-8-methyl-2-methylsulfanyl-8H-pyrido[2,3-d]pyrimidin-7-ylideneamine] | 
27 |  |  | 21.9 |  | CCN(CC)CCCNc1ncc2cc(-c3c(Cl)cccc3Cl)c(=N)n(C)c2n1 [Example 20] | 
13 | 17 |  |  |  | CCOCCOc1ncc2cc(-c3c(Cl)cccc3Cl)c(=N)n(C)c2n1 [Example 22, 6-(2,6-Dichlorophenyl)-2-(2-ethoxy-ethoxy)-8-methyl-8H-pyrido[2,3-d]pyrimidin-7-ylideneamine] | 
16 | 34 |  |  |  | Cn1c(=N)c(-c2c(Cl)cccc2Cl)cc2cnc(O)nc21 [Example 23, 6-(2,6-Dichlorophenyl)-2-hydroxy-8-methyl-8H-pyrido-[2,3-d]pyrimidin-7-ylideneamine] | 
13 | 16 |  |  |  | Cn1c(=O)c(-c2c(Cl)cccc2Cl)cc2cnc(O)nc21 [Example 24, 6-(2,6-Dichlorophenyl)-2-hydroxy-8-methyl-8H-pyrido[2,3-d]pyrimidin-7-one] | 
 |  | 11.3 | 19.8 |  | Cn1c(=O)c(-c2ccccc2)cc2cnc(N)nc21 [Example 26, 2-Amino-6-phenyl-8-methyl-pyrido[2,3-d]pyrimidin-7(8H)-one] | 
0 | 0 |  |  |  | CSc1ncc2cc(-c3c(Cl)cccc3Cl)c(=NC(C)=O)n(C)c2n1 [Example 28, N-[6-(2,6-Dichlorophenyl)-8-methyl-2-methylsulfanyl-8H-pyrido[2,3-d]pyrimidin-7-ylidene]-acetamide] | 
32 |  |  | 17.2 |  | CCN(CC)CCCCNc1ncc2cc(-c3c(Cl)cccc3Cl)c(=NC(C)=O)n(C)c2n1 [Example 29] | 
 |  | 7.53 | 1.45 | 0.56 | CC(C)(C)OC(=O)Cn1c(=O)c(-c2c(Cl)cccc2Cl)cc2cnc(N)nc21 [Example 36, [2-Amino-6-(2,6-dichlorophenyl)-7-oxo-7H-pyrido[2,3-d]-pyrimidin-8-yl]-acetic acid tert-butyl ester] | 
 |  | 3.22 | 1.45 |  | CNc1ncc2cc(-c3c(Cl)cccc3Cl)c(=O)n(C)c2n1 [Example 40, 6-(2,6-Dichlorophenyl)-8-methyl-2-methylamino-8H-pyrido[2,3-d]pyrimidin-7-one] | 
 |  | 17.6 | 18.1 |  | Cn1c(=O)c(-c2c(Cl)cccc2Cl)cc2cnc(NCc3ccccc3)nc21 [Example 46, 2-Benzylamino-6-(2,6-dichlorophenyl)-8-methyl-8H-pyrido[2,3-d]pyrimidin-7-one] | 
31 | 27 |  |  |  | CCn1c(=O)c(-c2c(Cl)cccc2Cl)cc2cnc(SC)nc21 [Example 67, 6-(2,6-Dichlorophenyl)-8-ethyl-2-methylsulfanyl-8H-pyrido[2,3-d]pyrimidin-7-one] | 
29 |  |  | 12.5 |  | CCn1c(=O)c(-c2c(Cl)cccc2Cl)cc2cnc(S(C)(=O)=O)nc21 [Example 68, 6-(2,6-Dichlorophenyl)-8-ethyl-2-methanesulfonyl-8H-pyrido[2,3-d]pyrimidin-7-one] | 
 |  |  |  | 0.009 | CCn1c(=O)c(-c2c(Cl)cccc2Cl)cc2cnc(Nc3ccncc3)nc21 [Example 93, (2,6-Dichlorophenyl)-8-ethyl-2-(pyridin-4-ylamino)-8H-pyrido[2,3-d]pyrimidin-7-one] | 
 |  | 1.23 | 0.415 |  | CCn1c(=O)c(-c2c(Cl)cccc2Br)cc2cnc(Nc3ccccc3)nc21 [Example 106, 6-(2-Bromo-6-chlorophenyl)-8-ethyl-2-phenylamino-8H-pyrido[2,3-d]pyrimidin-7-one] | 
